Format in all cases: cell-based
The subject of one assay is MOLM16 cells. Description: MTT assay (number of live cells), MOLM16 cells, single inhibitors and combination, Compusyn CI. The settings on record: 48 hours. The method, then:
(§1) General experimental procedure: 10,000 (MOLM16) or 20,000 (EOL1) cells were seeded per well in 96-well plates. After culturing overnight, AZD1208 and/or Pladienolide B/SRPIN340 were added to wells in quadruplicates at 5 different concentrations. Different ratios between AZD1208 and Pladienolide B were tried in MOLM16 and EOL1 cells. At 48 hours the MTT metabolism indicative of number of live cells was measured by MTT assay (Promega, Cat: G4000). The resulting values were used to evaluate the Fa (fraction affected) values, which were plugged into the Compusyn software to calculate the combination indices (CI values) at ED50, ED75, ED90 and ED95 (ED—Effective dose of combination).
These values of drug dose and effect (fraction of cells affected by the treatment—FA values) were input into the Compusyn software to estimate the interaction between the two drugs.
In general terms: Tetrazolium dyes change colour on reduction, which living cells bring about.

The next assay has as its system MCL1 splice variants. As to the kind of experiment: Taqman qRT-PCR for MCL1 splice variants in MOLM16 cells. The settings on record: MOLM16, 20 μM, 24 hours. An excerpt:
Control=DMSO treated. […] Arrow indicate bands that change after AZD1208 treatment.
A few targets from the microarray data were chosen, that being, ones that were affected by PIM kinase inhibition. The procedure was manual curation of data, followed by reference seq analysis of splice variants to determine avalibilty of sequence information. Initially, changes in splice variants of a known apoptotic regulator, MCL1 were validated. The smaller isoform of MCL1 is pro-apototic, while the longer isoform has anti-apototic functions.

Assay [1] has as its system SR protein phosphorylation. Description: Western blot using phospho-SR protein antibody. Conditions: MOLM16 and EOL1 cells, versus DMSO treated controls. The procedure: MOLM16 and EOL1 cells were treated with AZD1208 or SRPIN340 for indicated concentration and time. Cells lysates from treated cells were used for western blot analysis.
Phosphorylation of splicing factors is known to play a role in regulation of splicing. Phosphorylation of splicing factors called serine arginine rich proteins (SR proteins) is known to regulate their function and localization. Serine arginine rich protein kinases (SRPK1 and SRPK2) phosphorylate these proteins and inhibition of SRPK activity using the small molecule modulator SRPIN340 leads to reduction in phosphorylation. The level of SR protein phosphorylation can be visualized using phospho-SR protein antibody. It was investigated to determine if PIM kinases regulate SRPK activity to indirectly lead to changes in splicing. […] Thus, it was concluded that the SRPK activity was not affected by PIM kinase inhibition.
For orientation: In western blotting, separated proteins are transferred to a membrane and probed.

The subject of a further assay is EOL1 cells. As to the kind of experiment: MTT assay (number of live cells), EOL1 cells, single inhibitors and combination, Compusyn CI. The settings on record: for Effect (fraction of cells affected, FA): 48 hours. The method, then: as §1
To further confirm the finding in MOLM16 cells, it was tested whether the combination of AZD1208 and Pladienolide B is synergistic in another AML cell line—EOL1. Different ratios between AZD1208 and Pladienolide B were tested to identify the ideal ratio that provides maximum synergy.

Molecules are shown by their SMILES. Entries after “also recorded” stand apart in the source; their conditions may differ.

This note sets out measurements from US10842785B2, “PIM kinase inhibitors in combination with RNA splicing modulators/inhibitors for treatment of cancers” (UNIVERSITY OF MARYLAND, BALTIMORE COUNTY, priority 2016, dated 2020).

Regarding `O=C(Nc1cc(C(F)(F)F)ccc1N1CCCCC1)c1ccncc1` [SRPIN340, N-[2-(1-Piperidinyl)-5-(trifluoromethyl)phenyl]-4-pyridinecarboxamide], the “Effect (fraction of cells affected, FA)” value amounted to 0.004 in the assay on MOLM16 cells (MOLM16, SRPIN340 testing Trial 1, 5 μM); 0.014 with MOLM16 cells (MOLM16, SRPIN340 testing Trial 1, 10 μM); 0.385 in the assay with MOLM16 cells (MOLM16, SRPIN340 testing Trial 1, 20 μM). For the same molecule, the “changes in MCL1 splicing” value in the assay with MCL1 splice variants is recorded as “Changes in MCL1 splicing were not observed”. Also, the SR protein phosphorylation entry in assay [1] was “reduction in phosphorylation signal; also recorded: phosphorylation of SR proteins changes”.

As to `CCC(O)C(C)C1OC1CC(C)/C=C/C=C(\C)C1OC(=O)CC(O)CCC(C)(O)C(OC(C)=O)/C=C/C1C` (stereo not drawn) [Pladienolide B, pladienolide B], the “Effect (fraction of cells affected, FA)” value amounted to 0.517 in the assay with MOLM16 cells (MOLM16, Trial 1, 0.002 μM); 0.599 with MOLM16 cells (MOLM16, Trial 1, 0.004 μM); 0.711 in the assay on MOLM16 cells (MOLM16, Trial 1, 0.006 μM); 0.726 in the assay with MOLM16 cells (MOLM16, Trial 1, 0.008 μM); 0.757 in the assay with MOLM16 cells (MOLM16, Trial 1, 0.01 μM); 0.487 in the assay on MOLM16 cells (MOLM16, Trial 2, 0.002 μM). For the same molecule, the “Effect (fraction of cells affected, FA)” value in the assay with MOLM16 cells (MOLM16, Trial 2, 0.004 μM) stood at 0.676; in the assay on MOLM16 cells (MOLM16, Trial 2, 0.006 μM) it was 0.752; with MOLM16 cells (MOLM16, Trial 2, 0.008 μM), 0.821; in the assay with MOLM16 cells (MOLM16, Trial 2, 0.01 μM) it was 0.862; in the assay on MOLM16 cells (MOLM16, Trial 3, 0.002 μM), 0.393; in the assay on MOLM16 cells (MOLM16, Trial 3, 0.004 μM), 0.607. In addition, the “Effect (fraction of cells affected, FA)” value in the assay with MOLM16 cells (MOLM16, Trial 3, 0.006 μM) is listed as 0.696; in the assay on MOLM16 cells (MOLM16, Trial 3, 0.008 μM), 0.749; in the assay with MOLM16 cells (MOLM16, Trial 3, 0.01 μM) it was 0.814; in the assay with EOL1 cells (EOL1, Trial 1, 0.001 μM) it was 0.315; with EOL1 cells (EOL1, Trial 1, 0.002 μM), 0.633; in the assay on EOL1 cells (EOL1, Trial 1, 0.003 μM), 0.890. Moreover, the “Effect (fraction of cells affected, FA)” value in the assay on EOL1 cells (EOL1, Trial 1, 0.004 μM) is 0.957; in the assay on EOL1 cells (EOL1, Trial 1, 0.005 μM) it was 0.982; in the assay on EOL1 cells (EOL1, Trial 2, 0.0005 μM), 0.060; in the assay on EOL1 cells (EOL1, Trial 2, 0.001 μM), 0.351; with EOL1 cells (EOL1, Trial 2, 0.0015 μM), 0.528; in the assay with EOL1 cells (EOL1, Trial 2, 0.002 μM), 0.706. Also, the “Effect (fraction of cells affected, FA)” value was found to be 0.820 in the assay with EOL1 cells (EOL1, Trial 2, 0.0025 μM); 0.095 in the assay with EOL1 cells (EOL1, Trial 3, 0.0005 μM); 0.360 in the assay with EOL1 cells (EOL1, Trial 3, 0.001 μM); 0.542 in the assay with EOL1 cells (EOL1, Trial 3, 0.0015 μM); 0.667 in the assay on EOL1 cells (EOL1, Trial 3, 0.002 μM); 0.814 with EOL1 cells (EOL1, Trial 3, 0.0025 μM). In addition, the “relative sensitivity of the cells to the two drugs” value in the assay with EOL1 cells (EOL1, Trial 1) is recorded as “more sensitive to Pladienolide B than AZD1208”.
